Key:
[1] = test system: anti-FVIII antibody titers; assay: FVIII-specific tolerance with OPLS, OPDS or Dex, rechallenge with free FVIII (FIG. 11); conditions: s.c. co-administration with FVIII, then s.c. free FVIII
anti-GAA antibody titers = assay: Effect of OPLS on immunogenicity of GAA protein; type: in vivo, mice; conditions: 5 mg dose with 1 μg GAA, 4 weekly s.c., 2 week rest
Procedure: Materials and Methods: GAA Source: Full length recombinant rhGAA was produced in Human Kidney Embryo Cells for our use by Creative Biomart (Shirley, N.Y.); OPLS Source: Sigma-Aldrich (St. Louis, Mo.). n=8 animals/group were immunized with 4 weekly s.c. injections of 1 μg of GAA in 100 μl of either sterile TRIS for the free group or in 5 mg OPLS in sterile TRIS for the OPLS-GAA group. A group of 8 mice will receive the same dose of CBrhGAA in 5 mg O-phospho-D-serine (OPDS) solution as a negative control. After a 2 week rest period, a blood sample from the saphenous vein will be collected. Samples were stored at −80° C. until analysis. These samples were then analyzed for anti-GAA Ab titers. Anti-GAA antibody titers were measured as follows: ELISA plate (maxisorp, NUNC) was coated with 50 μl of 5 μg/ml of sterile rhGAA in sodium carbonate-bicarbonate buffer pH =9.6. The plate was incubated overnight at 4° C. The plate was washed six times with PBS containing 0.05% Tween 20 (PBS-T, 250 μl/well) using an automated plate washer. The plate was blocked with PBS containing 1% BSA (300 μl/well) as the block buffer for 2 hr at 37° C. […] The reaction was stopped with 2 N sulfuric acid and read immediately at 450 nm using a micro-plate reader. The titer values are quantitated using a statistical endpoint method as described by Frey et al. Control plasma samples were run on each plate. […]

anti-GAA total titers = assay: OPLS-GAA sequential administration study; type: in vivo, Mice
Procedure: This examples describes OPLS-GAA sequential administration study. To determine if OPLS can exert its immunomodulatory effects on the immune response to GAA when the two are administered in separate spaced injections, at the same injection site the following experiments were carried out. Mice (n=6 animals/group) were immunized with 4 weekly sc injections as follows. One group of animals received one single combined injection of 5 mg OPLS and 1 μg rhGAA(100 μl volume). Recombinant human GAA was produced by Creative Biomart. The second group received one injection of 5 mg OPLS (100 μl volume) then after a 5 minute wait they received a second injection of 1 μg rhGAA in sterile TRIS (100 μl volume) in the same injection site. The final control group received one injection of sterile TRIS (100 μl volume) then after a 5 minute wait they received a second injection of 1 μg rhGAA in sterile TRIS (100 μl volume) in the same injection site. After a two week rest period a saphenous blood sample was collected. All of the mice were then rechallenged with 4 weekly injections of 1 μg of rhGAA in 100 μl sterile TRIS (one single injection). Analysis was done by ELISA for total titers. The mean free GAA after 6 weeks was 3135±910, When co-administered, the GAA was 787±155, and when administered separately (sequentially), the GAA was 926±202 (FIG. 26). After re-challenge, terminal sampling was done at week 11. The mean free GAA after 11 weeks was 8775±2363, When co-administered, the GAA was 895±335, and when administered separately (sequentially), the GAA was 1884±761. […] Either administration method was able to induce a hypo-responsiveness towards GAA.

[2] = Rituximab pharmacokinetics after iv and sc administration in isotonic and hypertonic buffers; type: in vivo, SW mice
Procedure: Preparation and characterization of injection buffers: One isotonic and six different hypertonic TRIS buffers were prepared to investigate the effects of hypertonicity and buffer composition on rituximab lymphatic uptake and plasma exposure (Table 1.).
Isotonic TRIS buffer was prepared using 25 mM TRIS and 150 mM NaCl (Buffer A). Hypertonic (600 mmol/kg) TRIS buffers were prepared with 25 mM of TRIS containing 300 mM NaCl (Buffer B). Buffers “C” and “E” contained NaCl as well as 20 mM of OPLS or Mannitol. To further delineate the effects of buffer composition on lymphatic uptake, we prepared two buffers at 600 mmol/kg with a 270 mM of OPLS (Buffer D) or mannitol (Buffer F). […] Osmolarity was measured using a 5500 Vapor Pressure Osmometer (Wescore Inc. Logen, Utah, USA) according to manufacturer's instruction.
Rituximab pharmacokinetics studies: 126 male SW mice were divided into 7 groups. […] The disposition of RXT will be determined from the iv PK profile and convoluted with the absorption data generated from the sc studies. […] Immediately before analysis; the inguinal lymph nodes were homogenized in 300 μl of PBS on ice and then analyzed.
Analysis of RXT in plasma and lymph node samples: Analysis of plasma and lymph node samples from PK studies was done with a standard ELISA. […] Optical density at 450 nm was measured using a plate reader.

N[C@H](COP(=O)(O)O)C(=O)O [OPDS, O-Phospho-D-Serine, reference compound]
FVIII-specific hypo-responsiveness upon rechallenge [1]: did not | Anti-GAA antibody titers vs GAA alone (anti-GAA antibody titers): lower

free GAA: Full length recombinant rhGAA produced in Human Kidney Embryo Cells by Creative Biomart
Total titers (ELISA), week 11 after re-challenge (anti-GAA total titers; control group, rechallenge 4 weekly 1 μg rhGAA): 8775±2363 | Total titers (ELISA), week 6 (anti-GAA total titers; control: TRIS then 1 μg rhGAA 5 min later, same site, 4 weekly sc): 3135±910

rituximab: Commercial preparation of rituximab (RXT)
sc bioavailability of rituximab ([2]; 1 μg/g in isotonic Buffer A): 0.29 | Fraction of the dose taken up by the lymph nodes ([2]; 1 μg/g sc in isotonic Buffer A, estimated): 0.05
